# Where two headings read alike, the source gives them in different places. Marks after values point to notes of the source that are not given here.
# Experiments:
# [1] = tested on: Pseudomonas aeruginosa PA14; experiment: Lungs of immunosuppressed mice infected with Pseudomonas aeruginosa (1), lung bacterial load; format: in vivo; conditions: 24 hours after infection, day, ip at 2 h, 4 h, 6 h, 8 h
# Experimental: Pseudomonas aeruginosa PA14. 64 mice were intraperitoneally injected with 150 mg/kg cyclophosphamide on the first day and the fourth day to give immunosuppressed mice. […] [table] The mice were injected with 50 μL of bacterial solution (2×10^3 CFU) through the airway. 2 hours after the infection, 4 mice in the model group was sacrificed by removing cervical vertebra. Two hours after infection, the drugs were administered by groups, and the mice were administered intraperitoneally once at 2 hours, 4 hours, 6 hours, and 8 hours, a total of 4 times. Mice of each group were sacrificed by removing cervical vertebra 24 hours after infection, lung and kidney tissues were taken aseptically and put into sterilized tissue homogenate tubes, weighed, and an appropriate amount of normal saline (NS) was added, the mixture was homogenized by a homogenizer for 1 min, the lung tissues of the model group were diluted 10^4, 10^5, 10^6 times, the lung tissues of each administration group were diluted 10, 100 times, the kidney tissues of the model group were diluted 10^2, […], 10^4 times, and the lung tissues of each administration group were diluted 10 times, the obtained mixtures were coated on TSA plates using spiral coater, then incubated at 37° C. overnight, and the CFU was counted with a colony counter. Graphpad Prism mapping software was used to make scatter plots of lung tissue CFU. SPSS19.0 software was used to count CFU and average body weight, and analysis of variance was used to analyze differences between groups.
# [2] = tested on: Pseudomonas aeruginosa PA14; experiment: Lungs of immunosuppressed mice infected with Pseudomonas aeruginosa (2), lung bacterial load; format: in vivo; conditions: 24 hours after infection, total dosage 60 mg/kg, day, ip at 2 h, 4 h, 6 h, 8 h
# Experimental: Pseudomonas aeruginosa PA14. 60 mice were intraperitoneally injected with 150 mg/kg cyclophosphamide on day 1 and day 4 to give immunosuppressed mice. […] [table] The mice were injected with 50 μL of bacterial solution (2×10^3 CFU) through the airway. 2 hours after the infection, 4 mice in the model group was sacrificed by removing cervical vertebra. Two hours after infection, the drugs were administered by groups, and the mice were administered intraperitoneally once at 2 hours, 4 hours, 6 hours, and 8 hours, a total of 4 times. Mice of each group were sacrificed by removing cervical vertebra 24 hours after infection, lung and kidney tissues were taken aseptically and put into a sterilized tissue homogenate tube, weighed, and an appropriate amount of normal saline (NS) was added, the mixture was homogenized by a homogenizer for 1 min, the lung tissues of the model group were diluted 10^4, 10^5, 10^6 times, the lung tissues of each administration group were diluted 10, 100 times, the kidney tissues of the model group were diluted 10^2, 10^3, 10^4 times, and the lung tissues of each administration group were diluted 10 times, the obtained mixtures were coated on TSA plates using spiral coater, then incubated at 37° C. overnight, and the CFU was counted with a colony counter. Graphpad Prism mapping software was used to make scatter plots of lung tissue CFU. SPSS19.0 software was used to count CFU and average body weight, and analysis of variance was used to analyze differences between groups.
# E. coli ATCC 25922 = experiment: MIC by micro-liquid dilution method (CLSI); format: cell-based; conditions: Escherichia coli
# [3] = tested on: K. pneumoniae ATCC BAA-1705 (KPC-2); experiment: MIC by micro-liquid dilution method (CLSI); format: cell-based, Klebsiella pneumonia; conditions: Klebsiella pneumoniae, ATCCBAA1705; K. pneumoniae ATCCBAA-1705; read-out: MIC
# A. baumannii ATCC 17978 = experiment: MIC by micro-liquid dilution method (CLSI); format: cell-based; conditions: Acinetobacter baumannii; A. baumannii ATCC17978; read-out: MIC
# P. aeruginosa PA 14 = experiment: MIC by micro-liquid dilution method (CLSI); format: cell-based; conditions: Pseudomonas aeruginosa, PA14; P. aeruginosa PA 14; read-out: MIC
# Text: (§1) Three strains of Klebsiella pneumonia, K. pneumoniae ATCC BAA-205 (TEM-1/SHV-1/SHV-12), K. pneumoniae ATCC BAA-1705 (KPC-2), K. pneumoniae ATCC BAA-2470 (NDM-1); three strains of Pseudomonas aeruginosa, P. aeruginosa NCTC13437 (VIM-10; VEB-1), P. aeruginosa PA 14 and P. aeruginosa ATCC 35151; four strains of Escherichia coli, E. coli NCTC 13476 (IMP-1 type), E. coli ATCC BAA-2523 (OXA-48), E. coli MG1655Δtol C, E. coli ATCC 25922; one strain of Acinetobacter baumannii, A. baumannii ATCC 17978 and one strain of Staphylococcus aureus, S. aureus NRS384 were used to determine the minimum inhibitory concentration (MIC) of the compounds by micro-liquid dilution method according to the Institute of Clinical and Laboratory Standard (CLSI) requirements.
# E. coli MG1655Δtol C = experiment: MIC by micro-liquid dilution method (CLSI); format: cell-based; conditions: Escherichia coli
# Text: as §1
# [4] = tested on: E. coli ATCC BAA-2523 (OXA-48); experiment: MIC by micro-liquid dilution method (CLSI); format: cell-based; conditions: Escherichia coli, ATCCBAA2523
# Text: as §1
# [5] = tested on: K. pneumoniae ATCC BAA-2470 (NDM-1); experiment: MIC by micro-liquid dilution method (CLSI); format: cell-based, Klebsiella pneumonia; conditions: Klebsiella pneumoniae, ATCCBAA2470; K. pneumoniae ATCCBAA-2470; read-out: MIC
# P. aeruginosa ATCC 35151 = experiment: MIC by micro-liquid dilution method (CLSI); format: cell-based; conditions: Pseudomonas aeruginosa
# [6] = tested on: Acinetobacter baumannii ATCC-BAA-1789; experiment: MIC on Acinetobacter baumannii strains; format: cell-based; conditions: ATCCBAA1789
# Text: (§2) Twelve strains of Acinetobacter baumannii, A. baumannii ATCC 17978 (ATCC-BAA-1605, ATCC-BAA-1789, ATCC-BAA-1790, ATCC-BAA-1791, ATCC-BAA-1792, ATCC-BAA-1793, ATCC-BAA-1794, ATCC-BAA-1795, ATCC-BAA-1799, ATCC-BAA-1800, ATCC 19606, ATCC 17978) were used to determine the minimum inhibitory concentration (MIC) of the compounds by micro-liquid dilution method according to the Institute of Clinical and Laboratory Standard (CLSI) requirements.
# [7] = tested on: Acinetobacter baumannii ATCC 17978; experiment: MIC on Acinetobacter baumannii strains; format: cell-based; conditions: ATCC17978
# Text: as §2
# [8] = tested on: Acinetobacter baumannii ATCC-BAA-1799; experiment: MIC on Acinetobacter baumannii strains; format: cell-based; conditions: ATCCBAA1799, ATCC-BAA-1799, read-out: MIC
# Text: as §2
# [9] = tested on: Acinetobacter baumannii ATCC-BAA-1795; experiment: MIC on Acinetobacter baumannii strains; format: cell-based; conditions: ATCCBAA1795
# Text: as §2
# [10] = tested on: Acinetobacter baumannii ATCC-BAA-1793; experiment: MIC on Acinetobacter baumannii strains; format: cell-based; conditions: ATCCBAA1793, ATCC-BAA-1793, read-out: MIC
# Text: as §2
# [11] = tested on: Acinetobacter baumannii ATCC-BAA-1792; experiment: MIC on Acinetobacter baumannii strains; format: cell-based; conditions: ATCCBAA1792, ATCC-BAA-1792, read-out: MIC
# Text: as §2
# [12] = tested on: Acinetobacter baumannii ATCC-BAA-1800; experiment: MIC on Acinetobacter baumannii strains; format: cell-based; conditions: ATCCBAA1800, ATCC-BAA-1800, read-out: MIC
# Text: as §2
# [13] = tested on: Acinetobacter baumannii ATCC-BAA-1794; experiment: MIC on Acinetobacter baumannii strains; format: cell-based; conditions: ATCCBAA1794, ATCC-BAA-1794, read-out: MIC
# Text: as §2
# [14] = tested on: Acinetobacter baumannii ATCC-BAA-1791; experiment: MIC on Acinetobacter baumannii strains; format: cell-based; conditions: ATCCBAA1791
# Text: as §2
# [15] = tested on: Acinetobacter baumannii ATCC 19606; experiment: MIC on Acinetobacter baumannii strains; format: cell-based; conditions: ATCC19606
# Text: as §2
# [16] = tested on: Acinetobacter baumannii ATCC-BAA-1790; experiment: MIC on Acinetobacter baumannii strains; format: cell-based; conditions: ATCCBAA1790, ATCC-BAA-1790, read-out: MIC
# Text: as §2
# [17] = tested on: Acinetobacter baumannii ATCC-BAA-1605; experiment: MIC on Acinetobacter baumannii strains; format: cell-based; conditions: ATCCBAA1605, ATCC-BAA-1605, read-out: MIC
# Text: as §2
# [18] = tested on: K. pneumoniae ATCC BAA-205 (TEM-1/SHV-1/SHV-12); experiment: MIC by micro-liquid dilution method (CLSI); format: cell-based, Klebsiella pneumonia; conditions: Klebsiella pneumoniae, ATCCBAA205; K. pneumoniae ATCCBAA-205; read-out: MIC
# [19] = tested on: E. coli NCTC 13476 (IMP-1 type); experiment: MIC by micro-liquid dilution method (CLSI); format: cell-based; conditions: Escherichia coli; E. coli NCTC13476; read-out: MIC
# Text: as §1
SMILES,MIC [3] [µg/mL],MIC (A. baumannii ATCC 17978) [µg/mL],MIC (P. aeruginosa PA 14) [µg/mL],MIC (E. coli MG1655Δtol C) [µg/mL],MIC [5] [µg/mL],MIC [6] [µg/mL],MIC [7] [µg/mL],MIC [8] [µg/mL],MIC [9] [µg/mL],MIC [10] [µg/mL],MIC [11] [µg/mL],MIC [12] [µg/mL],MIC [13] [µg/mL],MIC [14] [µg/mL],MIC [15] [µg/mL],MIC [16] [µg/mL],MIC [17] [µg/mL],MIC [18] [µg/mL],other results
"CC1(C)[C@H](NC(=O)/C(=N\O[C@@H](COc2ccc(C(=N)N[C@@H]3CCCNC3)cc2)C(=O)O)c2csc(N)n2)C(=O)N1OS(=O)(=O)O [I-g, reference compound]",,,,,,,,,,,,,,,,,,,LOG10-of bacterial load ([1]; total dosage 120 mg/kg): 1.58 ± 2.45; LOG10-of bacterial load ([1]; total dosage 200 mg/kg): 0**; LOG10-of bacterial load [2]: 1.65 ± 1.39
CC1(C)[C@H](NC(=O)/C(=N\OCCOc2ccc3c(c2)CCN(C(=N)N)C3)c2csc(N)n2)C(=O)N1OS(=O)(=O)O [Compound 3],4,2,4,≤ 0.0039,2,16,4,16,8,8,16,8,8,16,8,16,16,8,"MIC (E. coli ATCC 25922; E. coli ATCC25922, read-out: MIC): 0.25 µg/mL; MIC ([4]; E. coli ATCCBAA-2523, read-out: MIC): 0.25 µg/mL; MIC (P. aeruginosa ATCC 35151; P. aeruginosa ATCC35151, read-out: MIC): 0.0625 µg/mL"
CC1(C)[C@H](NC(=O)/C(=N\OCCOc2ccc3c(c2)CCN(C(=N)NCCCN)C3)c2csc(N)n2)C(=O)N1OS(=O)(=O)O [Compound 4],1,0.5,1,≤ 0.125,0.5,4,0.5,4,4,4,4,8,4,2,8,4,8,8,MIC (E. coli ATCC 25922; ATCC25922): ≤ 0.125 µg/mL; MIC [4]: ≤ 0.125 µg/mL; MIC [19]: 0.25 µg/mL; MIC (P. aeruginosa ATCC 35151; ATCC35151): ≤ 0.125 µg/mL

# Reference: patent US11459323B2, “Monocyclic β-lactam compound for treating bacterial infection” (MEDSHINE DISCOVERY INC., priority 2018, dated 2022)
